Measured values reported in US9962383B2, “Compounds, compositions and methods of agelastatin alkaloids” (Massachusetts Institute of Technology, priority 2013, dated 2018).

Legend:
Jurkat = test: 48-hour IC50 by MTS, Jurkat acute T-cell leukemia cells; format: cell-based, human
Description: (§1) Cells were grown in media supplemented with fetal bovine serum (FBS) and antibiotics (100 μg/mL penicillin and 100 U/mL streptomycin). […] Cells were incubated at 37° C. in a 5% CO2, 95% humidity atmosphere.
(§2) In a 96-well plate, compounds were pre-added as DMSO stocks (1% final) in triplicate to achieve final concentrations of 1 nM to 10 μM on a half log scale. DMSO and cell-free wells served as the live and dead control, respectively. […] IC50 values were determined from three or more independent experiments using TableCurve (San Jose, Calif.).

U-937 = test: 48-hour IC50 by MTS, U-937 lymphoma cells; format: cell-based, human
Description: as §1, §2

tubulin dynamics = test: Tubulin microscopy with HeLa cells; format: cell-based, human; conditions: 16 hours, confocal microscopy
Description: HeLa cells were treated with compound for 16 hours, fixed, stained, and visualized using confocal microscopy.
Round, 1.5 mm coverslips (No. 1.5) were sterilized with ultraviolet light and placed in a 12-well plate. HeLa cells (100,000 cells/well) were added and allowed to adhere for eight hours. Compounds were then added as DMSO stocks to achieve a final DMSO concentration of 1%, and the plates were returned to the incubator for 16 hours.
Following incubation, the media was removed, and the coverslips were fixed with 0.5 mL Microtubulin Stabilizing Buffer (MTSB, 80 mM PIPES, pH 6.8, 1 mM MgCl2, 5 mM EGTA, 0.5% TX-100)+0.5% glutaraldehyde for 10 minutes at room temperature, after which the fixative was removed and the sample was quenched with the addition of 0.5 mL of freshly-prepared 1 mg/mL NaBH4 in PBS. After a 5 min incubation, the solution was removed by aspiration and the coverslips were washed with PBS.
Coverslips were transferred to parafilm-lined culture dishes (cell-side up), and 40 μL of 50 μg/mL RNase A in Antibody Diluting Solution (AbDil, PBS, pH 7.4, 0.2% TX-100, 2% BSA, 0.1% NaN3) with 1:50 dilution of anti-α-tubulin-FITC antibody was added to all samples. The samples were allowed to incubate at room temperature in the dark for 2.5 hours, after which the coverslips were washed three times with PBS+0.1% TX-100. […]

BT549 = test: 48-hour IC50 by SRB, BT549 breast carcinoma cells; format: cell-based, human
Description: as §1
(§3) Adherent cells (HeLa, A549, BT549, and IMR90) were added into 96-well plates (5,000 cells/well for HeLa cell line; 2,000 cells/well for A549, BT549, and IMR90 cell lines) in 100 μL media and were allowed to adhere for 2-3 hours. Compounds were solubilized in DMSO as 100× stocks, added directly to the cells (100 μL final volume), and tested over a range of concentrations (1 nM to 10 μM) in triplicate (1% DMSO final) on a half-log scale. DMSO and cell-free wells served as the live and dead control, respectively. […] Briefly, media was removed from the plate, and cells were fixed by the addition of 100 μL cold 10% trichloroacetic acid in water. After incubating at 4° C. for 1 h, the plates were washed in water and allowed to dry. Sulforhordamine B was added as a 0.057% solution in 1% acetic acid (100 μL), and the plates were incubated at room temperature for 30 min, washed in 1% acetic acid, and allowed to dry. […] IC50 values were determined from three or more independent experiments using TableCurve (San Jose, Calif.).

U-937 cells = test: Apoptosis in U-937 cells with Annexin V-FITC and propidium iodide; format: cell-based, human; conditions: 21 hours, flow cytometry
Description: FIG. 3. […] Analysis of phosphatidylserine exposure and propidium iodide inclusion at 21 hours in U-937 cells. Compounds were tested at indicated concentrations and STS was used as a positive control for apoptosis. Samples were analyzed by flow cytometry for the relative timing of phosphatidylserine exposure relative to PI inclusion. FITC=fluorescein isothiocyanate; PI=propidium iodide; STS=staurosporine.
DMSO stocks of compounds were added to a 24-well plate in singlicate (0.2% DMSO final). […] Following treatment, the cell suspensions were transferred to flow cytometry tubes and pelleted (500 g, 3 min). The media was removed by aspiration, and cells were resuspended in 200 μL AnnV binding buffer (10 mM HEPES, pH 7.4, 140 mM NaCl, 2.5 mM CaCl2) with 5 μg/mL PI and 1:90 dilution of AnnV. Samples were analyzed using flow cytometry.

[1] = test system: human cell lines (U-937, HeLa, A549, BT549, IMR90); test: Ability to induce cell death in the panel of five human cell lines (Table 3); format: cell-based; conditions: 48-hour exposure, 1 nM to 10 μM, cell lines of Table 3
Description: Six (−)-agelastatins along with eight closely related derivatives prepared in the above examples were tested (Table 3). The six (−)-agelastatin alkaloids (1-6, respectively), (−)-O-methyl-di-epi-agelastatin A (50), (−)-dehydroagelastatin A (51), (−)-di-epi-agelastatin C (52), (+)-O-methyl-pre-agelastatin A and D (39 and 53, respectively), along with bicyclic pyrroles (+)-44, (+)-45, and triazone (+)-48 were tested for their ability to induce cell death in four human cancer cell lines (U-937, lymphoma; HeLa, cervical carcinoma; A549, non-small cell lung carcinoma; and BT549, breast carcinoma) and one immortalized normal human cell line (IMR90, lung fibroblasts) after a 48-hour exposure. […] Furthermore, enhanced activities in U-937 (20×) cell relative to the other cell lines (Table 3) were observed.
Adherent cells (HeLa, A549, BT549, and IMR90) were added into 96-well plates (5,000 cells/well for HeLa cell line; 2,000 cells/well for A549, BT549, and IMR90 cell lines) in 100 μL media and were allowed to adhere for 2-3 hours. Compounds were solubilized in DMSO as 100× stocks, added directly to the cells (100 μL final volume), and tested over a range of concentrations (1 nM to 10 μM) in triplicate (1% DMSO final) on a half-log scale. DMSO and cell-free wells served as the live and dead control, respectively. After 48 h of continuous exposure, the plates were evaluated using the SRB colorimetric assay as described previously (V. Vichai, K. Kirtikara, Nature Prot., 2006, 1, 1112). Briefly, media was removed from the plate, and cells were fixed by the addition of 100 μL cold 10% trichloroacetic acid in water. After incubating at 4° C. for 1 h, the plates were washed in water and allowed to dry. Sulforhordamine B was added as a 0.057% solution in 1% acetic acid (100 μL), and the plates were incubated at room temperature for 30 min, washed in 1% acetic acid, and allowed to dry. The dye was solubilized by adding 10 mM Tris base solution (pH 10.5, 200 μL) and incubating at room temperature for 30 min Plates were read at λ=510 nm. IC50 values were determined from three or more independent experiments using TableCurve (San Jose, Calif.).
In a 96-well plate, compounds were pre-added as DMSO stocks (1% final) in triplicate to achieve final concentrations of 1 nM to 10 μM on a half log scale. DMSO and cell-free wells served as the live and dead control, respectively. Suspension cells (U-937, CEM, CA46, Daudi, HL-60, and Jurkat; 10,000 cells/well) cells were distributed in 100 μL media to the compound-containing plate. After 48 h, cell viability was assessed by adding 20 μL of a PMS/MTS solution (A. H. Cory, T. C. Owen, J. A. Barltrop, J. G. Cory, Cancer Commun., 1991, 3, 207) to each well, allowing the dye to develop at 37° C. until the live control had processed MTS, and reading the absorbance at λ=490 nm. IC50 values were determined from three or more independent experiments using TableCurve (San Jose, Calif.).

CA46 = test: 48-hour IC50 by MTS, CA46 Burkitt's lymphoma cells; format: cell-based, human
Description: as §1, §2

HeLa = test: 48-hour IC50 by SRB, HeLa cervical carcinoma cells; format: cell-based, human
Description: as §1, §3

CEM = test: 48-hour IC50 by MTS, CEM acute lymphoblastic leukemia cells; format: cell-based, human
Description: as §1, §2

A549 = test: 48-hour IC50 by SRB, A549 non-small cell lung carcinoma cells; format: cell-based, human
Description: as §1, §3

## CN1C(=O)N[C@H]2[C@@H]3NC(=O)c4ccc(Br)n4[C@@H]3C[C@]21O [(−)-1, (−)-agelastatin A]
Jurkat
  IC50: 0.074 ± 0.007 µM
U-937
  IC50: 0.067 ± 0.003 µM
Tubulin dynamics
  effect on tubulin dynamics: do not affect tubulin dynamics
BT549
  IC50: 0.278 ± 0.076 µM
U-937 cells
  apoptosis (phosphatidylserine exposure and propidium iodide inclusion): induced dose-dependent apoptosis
[1]
  activity (ability to induce cell death) in words: highest potency in all cell lines tested
CA46
  IC50: 0.187 ± 0.071 µM
HeLa
  IC50: 0.708 ± 0.09 µM
CEM
  IC50: 0.02 ± 0.002 µM
A549
  IC50: 1.05 ± 0.14 µM
